Experimental data published in ChEMBL document CHEMBL1132959, “Design of potent dicyclic (1-5/4-10) gonadotropin releasing hormone (GnRH) antagonists” (J Med Chem, 2000).
Each block holds one compound with its values, some of them ahead of it.

What was measured:
Rattus norvegicus [1] = species on record: Rattus norvegicus; assay: Antiovulatory potency at 25 ug/rat expressed as rats ovulating by total no. of rats (1/5); assay type: functional
Rattus norvegicus [2] = species on record: Rattus norvegicus; assay: Antiovulatory potency at 10 ug/rat expressed as rats ovulating by total no. of rats (4/8); assay type: functional
Rattus norvegicus [3] = species on record: Rattus norvegicus; assay: Antiovulatory potency at 5 ug/rat expressed as rats ovulating by total no. of rats (3/4); assay type: functional
[4] = target: T1, Gonadotropin-releasing hormone receptor (Rattus norvegicus, UniProt P30969); assay: Affinity for rat gonadotrophin releasing hormone (GnRH) receptor using HEK293 cells transfected with rat Gonadotropin-releasing hormone receptor; assay type: cell-based; details: hek293
T1 sequence (P30969 whole entry): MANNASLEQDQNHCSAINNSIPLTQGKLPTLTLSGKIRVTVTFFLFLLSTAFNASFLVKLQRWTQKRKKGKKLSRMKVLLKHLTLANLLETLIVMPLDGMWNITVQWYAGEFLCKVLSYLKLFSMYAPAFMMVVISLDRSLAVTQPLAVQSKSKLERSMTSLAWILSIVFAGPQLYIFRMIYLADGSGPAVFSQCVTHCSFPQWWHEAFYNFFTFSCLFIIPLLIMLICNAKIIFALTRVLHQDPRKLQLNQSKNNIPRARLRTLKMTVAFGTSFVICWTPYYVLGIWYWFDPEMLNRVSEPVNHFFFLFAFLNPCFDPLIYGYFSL

Rattus norvegicus [5] = species on record: Rattus norvegicus; assay: Antiovulatory potency at 500 ug/rat expressed as rats ovulating by total no. of rats (4/10); assay type: functional
Rattus norvegicus [6] = species on record: Rattus norvegicus; assay: Antiovulatory potency at 1000 ug/rat expressed as rats ovulating by total no. of rats (5/5); assay type: functional
Rattus norvegicus [7] = species on record: Rattus norvegicus; assay: Antiovulatory potency at 10 ug/rat expressed as rats ovulating by total no. of rats (5/5); assay type: functional
Rattus norvegicus [8] = species on record: Rattus norvegicus; assay: Antiovulatory potency at 50 ug/rat expressed as rats ovulating by total no. of rats (0/5); assay type: functional
Rattus norvegicus [9] = species on record: Rattus norvegicus; assay: Antiovulatory potency at 250 ug/rat expressed as rats ovulating by total no. of rats (7/7); assay type: functional
Rattus norvegicus [10] = species on record: Rattus norvegicus; assay: Antiovulatory potency at 250 ug/rat expressed as rats ovulating by total no. of rats (0/4); assay type: functional
Rattus norvegicus [11] = species on record: Rattus norvegicus; assay: Antiovulatory potency at 100 ug/rat expressed as rats ovulating by total no. of rats (14/14); assay type: functional
Rattus norvegicus [12] = species on record: Rattus norvegicus; assay: Antiovulatory potency at 1000 ug/rat expressed as rats ovulating by total no. of rats (3/3); assay type: functional
Rattus norvegicus [13] = species on record: Rattus norvegicus; assay: Antiovulatory potency at 500 ug/rat expressed as rats ovulating by total no. of rats (5/9); assay type: functional
Rattus norvegicus [14] = species on record: Rattus norvegicus; assay: Antiovulatory potency at 250 ug/rat expressed as rats ovulating by total no. of rats (1/5); assay type: functional
Rattus norvegicus [15] = species on record: Rattus norvegicus; assay: Antiovulatory potency at 25 ug/rat expressed as rats ovulating by total no. of rats (0/3); assay type: functional
Rattus norvegicus [16] = species on record: Rattus norvegicus; assay: Antiovulatory potency at 10 ug/rat expressed as rats ovulating by total no. of rats (2/8); assay type: functional

Ki [4]: 0.76 nM
Compound: CC(=O)N[C@@H]1CCC(=O)NCCC(=O)NC[C@H]2NC(=O)[C@@H](CC(=O)NC[C@H](C(N)=O)NC(=O)[C@H]3CCCN3C(=O)[C@H](CCCN=C(N)N)NC(=O)[C@@H](CC(C)C)NC(=O)[C@@H](Cc3ccc4ccccc4c3)NC2=O)NC(=O)[C@@H](Cc2c[nH]c3ccccc23)NC(=O)[C@H](Cc2ccc(Cl)cc2)NC1=O
Ovulating rats (Rattus norvegicus [1]): 1
Ovulating rats (Rattus norvegicus [2]): 4
Ovulating rats (Rattus norvegicus [3]): 3

Ki [4]: 0.25 nM
Compound: CC(=O)N[C@H]1CSSC[C@H]2NC(=O)[C@@H](CC(=O)NC[C@H](C(N)=O)NC(=O)[C@H]3CCCN3C(=O)[C@H](CCCN=C(N)N)NC(=O)[C@@H](CC(C)C)NC(=O)[C@@H](Cc3ccc4ccccc4c3)NC2=O)NC(=O)[C@@H](Cc2c[nH]c3ccccc23)NC(=O)[C@H](Cc2ccc(Cl)cc2)NC1=O
Ovulating rats (Rattus norvegicus [5]): 4

Compound: CC(C)C[C@@H]1NC(=O)[C@@H](Cc2ccc3ccccc3c2)NC(=O)[C@H](CCCN=C(N)N)NC(=O)[C@H](C)NC(=O)[C@@H](Cc2cccnc2)NC(=O)[C@@H](Cc2ccc(Cl)cc2)NC(=O)[C@@H](Cc2ccc3ccccc3c2)NC(=O)CCC(=O)NCCCC[C@@H](C(=O)N2CCC[C@H]2C(=O)N[C@H](C)C(N)=O)NC1=O
Ovulating rats (Rattus norvegicus [6]): 5

Ki [4]: 1.6 nM
Compound: CC(=O)N[C@@H]1CCC(=O)N[C@@H](C)C(=O)NCC[C@H]2NC(=O)[C@@H](CC(=O)NC[C@H](C(N)=O)NC(=O)[C@H]3CCCN3C(=O)[C@H](CCCN=C(N)N)NC(=O)[C@@H](CC(C)C)NC(=O)[C@@H](Cc3ccc4ccccc4c3)NC2=O)NC(=O)[C@@H](Cc2c[nH]c3ccccc23)NC(=O)[C@H](Cc2ccc(Cl)cc2)NC1=O
Ovulating rats (Rattus norvegicus [7]): 5

Ki [4]: 1.1 nM
Compound: CC(=O)N[C@H]1CCC(=O)NCCCC[C@@H]2NC(=O)[C@H](CC(C)C)NC(=O)[C@@H](Cc3ccc4ccccc4c3)NC(=O)[C@H](CCCN=C(N)N)NC(=O)[C@H](CC(=O)NC[C@H](C(N)=O)NC(=O)[C@@H]3CCCN3C2=O)NC(=O)[C@@H](Cc2cccnc2)NC(=O)[C@H](Cc2ccc(Cl)cc2)NC1=O
Ovulating rats (Rattus norvegicus [8]): 0
Ovulating rats (Rattus norvegicus [9]): 7

Compound: CC(=O)N[C@H](Cc1ccc2ccccc2c1)C(=O)N[C@H](Cc1ccc(Cl)cc1)C(=O)N[C@@H]1CC(=O)NCC[C@@H](C(=O)N2CCC[C@H]2C(=O)N[C@H](C)C(N)=O)NC(=O)[C@H](CC(C)C)NC(=O)[C@@H](Cc2ccc3ccccc3c2)NC(=O)[C@H](CCCN=C(N)N)NC(=O)[C@H](C)NC1=O
Ovulating rats (Rattus norvegicus [10]): 0
Ovulating rats (Rattus norvegicus [11]): 14

Compound: CC(=O)N[C@H](Cc1ccc2ccccc2c1)C(=O)N[C@@H]1CCC(=O)NCCCC[C@@H](C(=O)N2CCC[C@H]2C(=O)N[C@H](C)C(N)=O)NC(=O)[C@H](CC(C)C)NC(=O)[C@@H](Cc2ccc3ccccc3c2)NC(=O)[C@H](CCCN=C(N)N)NC(=O)[C@H](C)NC(=O)[C@@H](Cc2cccnc2)NC1=O
Ovulating rats (Rattus norvegicus [12]): 3

Ki [4]: 4.8 nM
Compound: CC(=O)N[C@@H]1CC(=O)NC[C@@H]2NC(=O)[C@@H](CC(=O)NC[C@H](C(N)=O)NC(=O)[C@H]3CCCN3C(=O)[C@H](CCCN=C(N)N)NC(=O)[C@@H](CC(C)C)NC(=O)[C@@H](Cc3ccc4ccccc4c3)NC2=O)NC(=O)[C@@H](Cc2c[nH]c3ccccc23)NC(=O)[C@H](Cc2ccc(Cl)cc2)NC1=O
Ovulating rats (Rattus norvegicus [13]): 5
Ovulating rats (Rattus norvegicus [14]): 1

Ki [4]: 0.49 nM
Compound: CC(=O)N[C@@H]1CC(=O)NCC(=O)NC[C@H]2NC(=O)[C@@H](CC(=O)NC[C@H](C(N)=O)NC(=O)[C@H]3CCCN3C(=O)[C@H](CCCN=C(N)N)NC(=O)[C@@H](CC(C)C)NC(=O)[C@@H](Cc3ccc4ccccc4c3)NC2=O)NC(=O)[C@@H](Cc2c[nH]c3ccccc23)NC(=O)[C@H](Cc2ccc(Cl)cc2)NC1=O
Ovulating rats (Rattus norvegicus [15]): 0
Ovulating rats (Rattus norvegicus [16]): 2
